Laboratory results: ChEMBL document CHEMBL4385613, “Discovery of Conformational Control Inhibitors Switching off the Activated c-KIT and Targeting a Broad Range of Clinically Relevant c-KIT Mutants” (J Med Chem, 2019)
Active and inactive are the calls of the source. No cut-off for these calls is given here.

Tests used:
[1] = system: GISTT1; assay: Antiproliferative activity against human GISTT1 cells harboring heterozygous V560-Y578 del mutation assessed as reduction in cell viability by methylene blue staining based assay; type: functional
[2] = biological target: Mast/stem cell growth factor receptor Kit (Homo sapiens, UniProt P10721); assay: Inhibition of recombinant human N-terminal 6x-His-tagged c-KIT (547 to 935 residues)/(694 to 753 residues deletion) expressed in baculovirus infected Sf9 insect cells assessed as decrease in poly (Glu,Tyr) 4:1 phosphorylation measured after 150 mins in presence of ATP by ADP-glo based luminescence assay
[3] = system: GISTT1; assay: Antiproliferative activity against human GISTT1 cells harboring heterozygous V560-Y578 deletion mutant assessed as reduction in cell viability by MTS assay; type: functional
[4] = system: GIST48; assay: Antiproliferative activity against human GIST48 cells harboring c-KIT exon 11 homozygous primary missense V560D mutant and exon 17 heterozygous secondary D820A mutant assessed as reduction in cell viability by methylene blue staining based assay; type: functional
[5] = system: GIST882; assay: Antiproliferative activity against human GIST882 cells harboring c-KIT exon 13 homozygous primary K642E mutant assessed as reduction in cell viability by methylene blue staining based assay; type: functional
[6] = system: GIST430; assay: (§1) Antitumor activity against human GIST430 cells harboring c-KIT exon 11 primary in-frame V560-L576 deletion mutant and exon 13 heterozygous secondary missense V654A mutant xenografted in NOD-SCID mouse assessed as tumor regression at 40 mg/kg, po administered for 2 weeks with 2 days rest after day 5 and measured thrice per week up to 21 days during compound dosing; type: functional, organism-based
[7] = system: GIST430; assay: as §1, with “growth inhibition” for “regression”; type: functional, organism-based
[8] = system: GIST882; assay: Antiproliferative activity against human GIST882 cells harboring c-KIT exon 13 homozygous primary K642E mutant assessed as reduction in cell viability by MTS assay; type: functional
[9] = system: GIST48; assay: Antiproliferative activity against human GIST48 cells harboring c-KIT exon 11 homozygous primary missense V560D mutant and exon 17 heterozygous secondary D820A mutant assessed as reduction in cell viability by MTS assay; type: functional
[10] = system: GIST430; assay: Antiproliferative activity against human GIST430 cells harboring c-KIT exon 11 primary in-frame V560-L576 deletion mutant and exon 13 heterozygous secondary missense V654A mutant assessed as reduction in cell viability by methylene blue staining based assay; type: functional
[11] = system: GIST430; assay: Antiproliferative activity against human GIST430 cells harboring c-KIT exon 11 primary in-frame V560-L576 deletion mutant and exon 13 heterozygous secondary missense V654A mutant assessed as reduction in cell viability by MTS assay; type: functional

CCc1cc(NC(=O)Nc2ccc(-c3cnc(Nc4nc(C)nc(N5CCN(CC)CC5)n4)s3)cc2)no1
GI50 [1]: 0.013 µM
IC50 [2]: 0.086 µM
GI50 [3]: 0.013 µM

CCc1cc(NC(=O)NCCCc2cnc(Nc3cc(N4CCN(CC)CC4)nc(C)n3)s2)no1
GI50 [1]: 0.01 µM
IC50 [2]: 0.05 µM
GI50 [3]: 0.01 µM

CCN1CCN(c2cc(Nc3ncc(-c4ccc(NC(N)=O)cc4)s3)ncn2)CC1
GI50 [1]: 0.086 µM
IC50 [2]: 0.098 µM
GI50 [3]: 0.086 µM

CCc1cc(NC(=O)Nc2ccc(-c3sc(Nc4cc(N5CCN(CC)CC5)ncn4)nc3C)cc2)no1
GI50 [1]: 0.0033 µM
IC50 [2]: 0.122 µM
GI50 [3]: 0.0033 µM

CCc1cc(NC(=O)Nc2ccc(-c3cnc(Nc4cc(N5CCN(CCO)CC5)ncn4)s3)cc2)no1
GI50 [1]: 0.0033 µM
IC50 [2]: 0.071 µM
GI50 [3]: 0.0033 µM

CCc1cc(NC(=O)N2CC=C(c3cnc(Nc4cc(N5CCN(CC)CC5)nc(C)n4)s3)CC2)no1
GI50 [1]: 0.0049 µM
IC50 [2]: 0.082 µM
GI50 [3]: 0.0049 µM

CCc1cc(NC(=O)Nc2ccc(-c3cnc(Nc4cc(N5CCN(CC)CC5)ncn4)s3)cn2)no1
GI50 [1]: 0.001 µM
IC50 [2]: 0.043 µM
GI50 [3]: 0.001 µM

CCc1cc(NC(=O)Nc2ccc(-c3csc(Nc4cc(N5CCN(CC)CC5)nc(C)n4)n3)cc2)no1
GI50 [1]: > 1 µM
IC50 [2]: 0.95 µM
GI50 [3]: > 1 µM

CCc1cc(NC(=O)Nc2ccc(-c3cnc(Nc4cc(N5CCC(N)C5)nc(C)n4)s3)cc2)no1 (configuration not stated)
GI50 [1]: 0.0064 µM
IC50 [2]: 0.015 µM
GI50 [3]: 0.0064 µM

CCc1cc(NC(=O)Nc2ccc(-c3cnc(Nc4cc(N5CCN(CC)CC5)nc(C)n4)s3)cc2)no1
GI50 [1]: 0.0032 µM
IC50 [2]: 0.097 µM
GI50 [3]: 0.0032 µM

CCN(CC)CCNC(=O)c1c(C)[nH]c(/C=C2\C(=O)Nc3ccc(F)cc32)c1C [SUNITINIB]
GI50 [4]: 2 µM
GI50 [5]: 0.064 µM
Activity [6]: inactive
TGI [7]: Active
GI50 [1]: 0.038 µM
GI50 [8]: 0.064 µM
GI50 [9]: 2 µM
GI50 [10]: 0.047 µM
GI50 [11]: 0.047 µM
GI50 [3]: 0.038 µM

CCN1CCN(c2cc(Nc3ncc(-c4ccc(NC(C)=O)cc4)s3)ncn2)CC1
GI50 [1]: 0.025 µM
IC50 [2]: 0.13 µM
GI50 [3]: 0.025 µM

Cc1nc(Nc2ncc(-c3ccc(NC(=O)Nc4ccccc4)cc3)s2)cc(N2CCN(C)CC2)n1
GI50 [1]: 0.0054 µM
IC50 [2]: 0.02 µM
GI50 [3]: 0.0054 µM

CCN1CCN(c2cc(Nc3ncc(-c4ccc(NS(=O)(=O)c5ccccc5)cc4)s3)nc(C)n2)CC1
GI50 [1]: 0.042 µM
IC50 [2]: 0.054 µM
GI50 [3]: 0.042 µM

CCc1cc(NC(=O)NCC#Cc2cnc(Nc3cc(N4CCN(CC)CC4)ncn3)s2)no1
GI50 [1]: 0.0099 µM
IC50 [2]: 0.038 µM
GI50 [3]: 0.0099 µM
